According to patent US4055639A, “Derivatives of N-(2,2-dichlorovinyl) salicylamide and use thereof as bactericides, fungicides and algicides for industry” (Nippon Kayaku Kabushiki Kaisha, priority 1975, dated 1977):
≈ marks a conversion by molar mass, not a printed value. Where a name gives a salt, the structure may show the parent alone. Read-outs that look alike come from different tables or passages of the source.

What was measured:
fungi = assay: degree of propagation on slime test boards in Waxman's liquid medium; parameters: key: -: no propagation; +: the area of propagation is 1-25% on the slime test boards.; ++: the area of propagation is 26-50% on the slime test boards.; +++: the area of propagation is 51-75% on the slime test boards.; ++++: the area of propagation is 76-100% on the slime test boards; settings: 0.02 part active compound (10% water soluble concentrate) in 100 parts medium, same method
Method: (§1) Zero point zero two (0.02) part of active compounds in the form of 10% water soluble concentrate which was prepared by Example 11 was added into 100 parts of Waxman's liquid medium. Pieces of wood and iron (hereafter referred to as the slime test boards) were soaked into the Waxman's liquid medium. The bacteria which were gathered from circular water system were inoculated upon the Waxman's liquid medim and incubated at 27°-34° C by shaking culture for 2 days. The degree of propagation of the bacteria on the slime test boards was examined.
(§2) The growth-inhibiting activity of active compounds against the fungi and the green algae was also examined by the same method as mentioned above.
(§3) The degree of propagation of the bacteria, fungi or green algae on the slime test boards is difined in term of the following symbols.

green algae = assay: as above; parameters: key: -: no propagation; +: the area of propagation is 1-25% on the slime test boards.; ++: the area of propagation is 26-50% on the slime test boards.; +++: the area of propagation is 51-75% on the slime test boards.; ++++: the area of propagation is 76-100% on the slime test boards; settings: 0.02 part active compound (10% water soluble concentrate) in 100 parts medium, same method
Method: as §1, §2, §3

Escherichia coli = assay: minimum inhibitory concentration, glucose bouillon medium dilution method; assay type: cell-based; settings: read-out: Minimum inhibitory amount (minimum inhibitory concentration, 100% control)
Description: (§4) Bactericidal activity and fungicidal activity of the active compounds of the present invention were examined by potato-dextrose agar dilution method, or [2] glucose bouillon medium dilution method. The results are shown in Table 2 below as the minimum inhibitory concentration (the minimum concentration of active compound found to produce 100% control of the test bacteria and fungi).

Bacillus subtilis = assay: as above; assay type: cell-based; settings: read-out: Minimum inhibitory amount (minimum inhibitory concentration, 100% control)
Description: as §4

Staphylococcus aureus = assay: as above; assay type: cell-based; settings: read-out: Minimum inhibitory amount (minimum inhibitory concentration, 100% control)
Description: as §4

Penicillium citrinum = assay: minimum inhibitory concentration, potato-dextrose agar dilution method; assay type: cell-based; settings: read-out: Minimum inhibitory amount (minimum inhibitory concentration, 100% control)
Description: as §4

Cladosporium harbarum = assay: as above; assay type: cell-based; settings: read-out: Minimum inhibitory amount (minimum inhibitory concentration, 100% control)
Description: as §4

Aspergillus niger = assay: as above; assay type: cell-based; settings: read-out: Minimum inhibitory amount (minimum inhibitory concentration, 100% control)
Description: as §4

[1] = test system: Bacteria, fungi and slime; assay: inhibition of bacteria, fungi and slime by water soluble concentrate in circular water systems, pastes or binding agents; settings: 10-20 ppm in circular water systems; 0.01-0.1% in pastes or binding agents
Method: A water soluble concentrate was prepared as follows:
The above ingredients were mixed. A water soluble concentrate was obtained. A water soluble concentrate containing Compound No. 1, No. 2, No. 5, No. 8, No. 16, No. 19 or No. 22 was prepared by the same method as mentioned above.
Before application, the concentrate was diluted 500-1000 times with water and sprayed on the inside of cotes to prevent the growth of bacteria and fungi.
The solution was added to water in circular water systems to inhibit the growth of slime. The concentration of Compound No. 6 in the water was 10-20 ppm.
An amount of 0.01-0.1% of Compound No. 6 as the solution was added to pastes or binding agents to prevent rottenness of them.

[2] = Method (2) glucose bouillon medium dilution
[3] = Method (1) potato-dextrose agar dilution
[4] = Cladosporium harbarum, Method (1) potato-dextrose agar dilution

| MIC (Escherichia coli; [2]) [µg/mL] | MIC (Bacillus subtilis; [2]) [µg/mL] | MIC (Staphylococcus aureus; [2]) [µg/mL] | MIC (Penicillium citrinum; [3]) [µg/mL] | MIC (Cladosporium harbarum; [4]) [µg/mL] | MIC (Aspergillus niger; [3]) [µg/mL] | inhibition of bacteria, fungi and slime [1] | SMILES | Degree of propagation (fungi) | Degree of propagation (green algae) | MIC (Escherichia coli) [µg/mL] | MIC (Bacillus subtilis) [µg/mL] | MIC (Staphylococcus aureus) [µg/mL] | MIC (Penicillium citrinum) [µg/mL] | MIC (Cladosporium harbarum; Cladosporium) [µg/mL] | MIC (Aspergillus niger) [µg/mL] |
| --- | --- | --- | --- | --- | --- | --- | --- | --- | --- | --- | --- | --- | --- | --- | --- |
| 60 (≈ 225 µM) | 5 (≈ 18.8 µM) | 5 (≈ 18.8 µM) | 10 (≈ 37.5 µM) | 5 (≈ 18.8 µM) | 10 (≈ 37.5 µM) |  | O=C(NC=C(Cl)Cl)c1cc(Cl)ccc1O [Compound No. 1, N-(2',2'-dichlorovinyl)-5-chlorosalicylamide] | - | - |  |  |  |  |  |  |
| 40 (≈ 146 µM) | 2.5 (≈ 9.12 µM) | 5 (≈ 18.2 µM) | 10 (≈ 36.5 µM) | 5 (≈ 18.2 µM) | 10 (≈ 36.5 µM) |  | CC(=O)Oc1ccccc1C(=O)NC=C(Cl)Cl [Compound No. 2, O-acetyl-N-(2,2-dichlorovinyl) salicylamide] | - | - |  |  |  |  |  |  |
| 60 (≈ 207 µM) | 10 (≈ 34.5 µM) | 10 (≈ 34.5 µM) | 20 (≈ 68.9 µM) | 10 (≈ 34.5 µM) | 10 (≈ 34.5 µM) |  | COC(=O)Oc1ccccc1C(=O)NC=C(Cl)Cl [Compound No. 3, O-methoxycarbonyl-N-(2,2-dichlorovinyl) salicylamide] |  |  |  |  |  |  |  |  |
|  |  |  |  |  |  |  | CNC(=O)Oc1ccccc1C(=O)NC=C(Cl)Cl [Compound No. 4, O-(N'-methylcarbamoyl)-N-(2,2-dichlorovinyl) salicylamide] |  |  | 60 (≈ 208 µM) | 10 (≈ 34.6 µM) | 10 (≈ 34.6 µM) | 10 (≈ 34.6 µM) | 5 (≈ 17.3 µM) | 20 (≈ 69.2 µM) |
| 10 (≈ 32.4 µM) | 1.3 (≈ 4.21 µM) | 1.3 (≈ 4.21 µM) | 2.5 (≈ 8.1 µM) | 2.5 (≈ 8.1 µM) | 2.5 (≈ 8.1 µM) |  | CC(=O)Oc1ccc(Cl)cc1C(=O)NC=C(Cl)Cl [Compound No. 5, O-acetyl-N-(2',2'-dichlorovinyl)-5-chlorosalicylamide] | - | - |  |  |  |  |  |  |
|  |  |  |  |  |  | inhibited for a long time | O=C(NC=C(Cl)Cl)c1cc(Cl)ccc1O [Compound No. 6, sodium salt of N-(2',2'-dichlorovinyl)-5-chlorosalicylamide] |  |  |  |  |  |  |  |  |
| 40 (≈ 139 µM) | 2.5 (≈ 8.68 µM) | 5 (≈ 17.4 µM) | 10 (≈ 34.7 µM) | 5 (≈ 17.4 µM) | 10 (≈ 34.7 µM) |  | CCC(=O)Oc1ccccc1C(=O)NC=C(Cl)Cl [Compound No. 15] | - | - |  |  |  |  |  |  |
| 80 (≈ 325 µM) | 10 (≈ 40.6 µM) | 10 (≈ 40.6 µM) | 20 (≈ 81.3 µM) | 20 (≈ 81.3 µM) | 20 (≈ 81.3 µM) |  | Cc1cccc(C(=O)NC=C(Cl)Cl)c1O [compound 12] |  |  |  |  |  |  |  |  |
| 60 (≈ 193 µM) | 5 (≈ 16.1 µM) | 5 (≈ 16.1 µM) | 10 (≈ 32.2 µM) | 10 (≈ 32.2 µM) | 20 (≈ 64.3 µM) |  | O=C(NC=C(Cl)Cl)c1cc(Br)ccc1O [compound 13] |  |  |  |  |  |  |  |  |
| 60 (≈ 217 µM) | 5 (≈ 18 µM) | 5 (≈ 18 µM) | 10 (≈ 36.1 µM) | 10 (≈ 36.1 µM) | 10 (≈ 36.1 µM) |  | O=C(NC=C(Cl)Cl)c1cccc([N+](=O)[O-])c1O [compound 14] |  |  |  |  |  |  |  |  |
| 60 (≈ 199 µM) | 5 (≈ 16.5 µM) | 10 (≈ 33.1 µM) | 10 (≈ 33.1 µM) | 5 (≈ 16.5 µM) | 10 (≈ 33.1 µM) |  | CCCC(=O)Oc1ccccc1C(=O)NC=C(Cl)Cl [compound 16] | - |  |  |  |  |  |  |  |
| 40 (≈ 132 µM) | 5 (≈ 16.5 µM) | 5 (≈ 16.5 µM) | 10 (≈ 33.1 µM) | 10 (≈ 33.1 µM) | 10 (≈ 33.1 µM) |  | CC(C)C(=O)Oc1ccccc1C(=O)NC=C(Cl)Cl [compound 17] |  |  |  |  |  |  |  |  |
| 40 (≈ 130 µM) | 5 (≈ 16.2 µM) | 5 (≈ 16.2 µM) | 10 (≈ 32.4 µM) | 5 (≈ 16.2 µM) | 10 (≈ 32.4 µM) |  | O=C(CCl)Oc1ccccc1C(=O)NC=C(Cl)Cl [compound 19] | - | - |  |  |  |  |  |  |
| 60 (≈ 175 µM) | 5 (≈ 14.6 µM) | 10 (≈ 29.2 µM) | 10 (≈ 29.2 µM) | 10 (≈ 29.2 µM) | 10 (≈ 29.2 µM) |  | O=C(NC=C(Cl)Cl)c1ccccc1OC(=O)C(Cl)Cl [compound 20] |  |  |  |  |  |  |  |  |
| 40 (≈ 132 µM) | 5 (≈ 16.4 µM) | 2.5 (≈ 8.22 µM) | 10 (≈ 32.9 µM) | 10 (≈ 32.9 µM) | 10 (≈ 32.9 µM) |  | CCOC(=O)Oc1ccccc1C(=O)NC=C(Cl)Cl [compound 22] | + (the area of propagation is 1-25% on the slime test boards.) |  |  |  |  |  |  |  |
| 40 (≈ 120 µM) | 5 (≈ 15.1 µM) | 5 (≈ 15.1 µM) | 10 (≈ 30.1 µM) | 10 (≈ 30.1 µM) | 10 (≈ 30.1 µM) |  | CC(C)COC(=O)Oc1ccccc1C(=O)NC=C(Cl)Cl [compound 23] |  |  |  |  |  |  |  |  |
| 60 (≈ 244 µM) | 10 (≈ 40.6 µM) | 10 (≈ 40.6 µM) | 20 (≈ 81.3 µM) | 10 (≈ 40.6 µM) | 20 (≈ 81.3 µM) |  | COc1ccccc1C(=O)NC=C(Cl)Cl [compound 24] |  |  |  |  |  |  |  |  |
| 40 (≈ 133 µM) | 5 (≈ 16.6 µM) | 5 (≈ 16.6 µM) | 10 (≈ 33.2 µM) | 5 (≈ 16.6 µM) | 10 (≈ 33.2 µM) |  | O=C(NC=C(Cl)Cl)c1cc(Cl)cc(Cl)c1O [compound 26] |  |  |  |  |  |  |  |  |
| 40 (≈ 117 µM) | 2.5 (≈ 7.29 µM) | 2.5 (≈ 7.29 µM) | 5 (≈ 14.6 µM) | 5 (≈ 14.6 µM) | 10 (≈ 29.2 µM) |  | CC(=O)Oc1c(Cl)cc(Cl)cc1C(=O)NC=C(Cl)Cl [compound 27] |  |  |  |  |  |  |  |  |
